Data published in patent US20130178441A1, “Methods for Extending Progression-Free Survival using 10-Propargyl-10-Deazaaminopterin” (ALLOS THERAPEUTICS, INC., priority 2010, published 2013).

Experiments:
[1] = tested on: relapsed or refractory PTCL; experiment: Progressive resistance analysis: PFS and response rate on pralatrexate vs previous lines of therapy (PDX-008, patients as their own control); format: in vivo, human; details: for Progression-free Survival Median: Kaplan-Meier
Protocol: Analysis of progressive resistance. The treatment immediately prior to entry into clinical trial PDX-008 provides data from a heterogeneous control group reflecting clinical practice with which to compare the efficacy of pralatrexate. This dataset has the benefit of being from the same patients as those receiving pralatrexate, and so avoids inter-subject variation.
Methodology: In order to explore this progressive resistance concept, retrospective analyses were performed looking at patients' response and PFS to prior therapies using patients as their own control. It was hypothesized that the response rates and PFS would be lower with each subsequent line of therapy (hypothesis #1). Analyses were conducted on those patients who received at least 3 prior therapies. PFS and response rate of third prior therapy (−3) were compared with those of the second prior therapy (−2), PFS and response rate of second prior therapy (−2) were compared with those last line of therapy (−1) prior to pralatrexate, and PFS and response rate of last line of therapy (−1) were compared with pralatrexate therapy for these patients. These analyses utilized investigator assessment of PFS, and response since central review of tumor assessments on prior therapies was not available.
Therefore, an analysis was conducted on all patients comparing PFS and response rate of last line of therapy with those of pralatrexate therapy.
For examining hypothesis #1, there were 57 patients (−3) who had undergone at least 3 prior therapies before entry into PDX-008. […] Examination of the pattern beyond 3 previous treatments would be progressively uninformative as fewer and fewer patients would be entered into the analysis. 1. See also FIG. 2.
There were 86 patients who had undergone at least 2 prior therapies before entry into PDX-008. This cohort included the 57 patients who received 3 or more previous treatments and 29 additional patients who received exactly 2 treatments prior to treatment with pralatrexate.
For examining hypothesis #2, PFS and response rate were compared following pralatrexate treatment with the treatment immediately prior to study entry for all 109 PTCL patients evaluated for efficacy in PDX-008. This cohort included the 86 patients who received 2 or more previous treatments and 23 patients who received only 1 treatment prior to pralatrexate.
Overview of Calculations: Time to progression of disease (PD) was calculated from the start date of the prior therapy administered to the date of progression+1 day.
PFS time was calculated as the number of days from start of prior treatment to the date of PD (date of PD−start date of prior treatment+1).
PFS time was calculated as the number of days from start of treatment to the date of PD or death, regardless of cause (date of PD or death−start date of pralatrexate treatment+1).
In addition, the PFS hazard ratio (HR), along with 95% confidence intervals (CIs), were estimated via the Cox regression model.
To assess the objective response rate (ORR) and PFS with each subsequent line of therapy and the effect of pralatrexate on ORR and PFS: In the first population group (n=57), i.e., group including patients with ≧3 prior systemic therapies, PFS and ORR of the third therapy prior to pralatrexate (−3) were compared with those of the second prior therapy (−2) to pralatrexate; PFS and ORR of the second prior therapy (2) were compared with those of the most recent line of therapy (−1) prior to pralatrexate; and PFS and ORR of the most recent line of therapy (−1) were compared with pralatrexate therapy for these patients.
In the second population group (n=86), i.e., group including patients with ≧2 prior systemic therapies, PFS and ORR of the second prior therapy (2) were compared with those of the most recent line of therapy (−1) prior to pralatrexate; and PFS and ORR of the most recent therapy (−1) were compared with pralatrexate therapy for these patients.

[2] = tested on: patients with relapsed or refractory PTCL; experiment: PROPEL analysis by treatment duration: treatment discontinuation and adverse events; format: in vivo, human
Protocol: The pivotal PROPEL study of pralatrexate (FOLOTYN®) in patients with relapsed or refractory PTCL reported a rapid response to treatment in a heavily pretreated patient population. The majority of patients (63% of responders) responded by their first assessment at 7 weeks (the end of cycle 1). The present analysis assessed if there were any unique characteristics of patients who were unable to complete the first cycle of therapy and to assess the outcomes of patients who received ≧1 or ≧2 cycles of pralatrexate. Pralatrexate, a folate analog targeting dihydrofolate reductase, was approved in the United States for treatment of relapsed or refractory PTCL based on the PROPEL study. Methods: In PROPEL, patients received 30 mg/m^2 pralatrexate once weekly for 6 weeks in successive 7-week cycles. […] Cycle completion was determined receiving ≧1 dose in the following cycle. Thus, the subgroup of patients who completed ≧1 (n=64) includes those patients who only completed 1 cycle+the 43 who completed ≧2 cycles of treatment. […] However, the patients not completing cycle lwere more likely to have the angioimmunoblastic subtype (20% vs 6%). Patients in each subgroup received a median of 3 prior treatment regimens.
The most frequent reasons for treatment discontinuation were similar for patients with <1 cycle, ≧1 cycle or ≧2 cycles, although the incidence of discontinuation was lower for patients with ≧1 or 2 cycles. […] However, the percentage of patients in whom mucosal inflammation led to treatment discontinuation was similar (<1: 4%; ≧1: 6%; ≧2: 2%). […] Patients who were unable to complete cycle 1 were more likely to have quickly progressed through multiple lines of therapy and were more likely to have the angioimmunoblastic subtype, which a subtype is thought to have a different biology than other PTCL subtypes and lower chemosensitivity. Further analysis of this subtype is warranted.

[3] = all patients (≧1 prior therapy), N=109, investigator assessment
[4] = patients with ≧2 previous treatments, N=86, investigator assessment
[5] = patients with ≧3 previous treatments, N=57, investigator assessment

C#CCC(Cc1cnc2nc(N)nc(N)c2n1)c1ccc(C(=O)N[C@@H](CCC(=O)O)C(=O)O)cc1 (mixture of isomers) [Pralatrexate, (2S)-2-[[4-[(1RS)-1-[(2,4-diaminopteridin-6-yl)methyl]but-3-ynyl]benzoyl]amino]pentanedioic acid]
Response Rate [1, 3]: 39%
Progression-free Survival Median [1, 3]: 121.00 days
PFS Hazard Ratio, −1 vs pralatrexate ([1]; all patients, N=109, Cox regression, 95% CI): 1.051
Response Rate (ORR) [1, 4]: 40%
Progression-free Survival Median [1, 4]: 119.00 days
Progression-free Survival Median ([1]; patients with ≧2 previous treatments, N=86, investigator assessment, listed as pralatrexate): 119 days
Trend of decreased ORR and PFS with successive lines of therapy ([1]; patients with ≧3 or ≧2 previous treatments): reversed
Response Rate (ORR) [1, 5]: 40%
Progression-free Survival Median [1, 5]: 134.00 days
Progression-free Survival Median ([1]; patients with ≧3 previous treatments, N=57, investigator assessment, listed as pralatrexate): 134 days
Additional patients with dose reductions in cycle 2 due to mucosal inflammation who continued treatment ([2]; 4 patients): 9%
Discontinued due to adverse events (AEs) ([2]; 45 patients who did not complete cycle 1): 29%
Incidence of Grade 3-4 anemia ([2]; <1 cycle): 27%
Incidence of Grade 3-4 mucosal inflammation ([2]; <1 cycle): 24%
Incidence of Grade 3-4 thrombocytopenia ([2]; <1 cycle): 40%
Patients in whom mucosal inflammation led to treatment discontinuation ([2]; <1 cycle): 4%
Patients with dose reductions due to mucosal inflammation in cycle 1 who continued treatment ([2]; Eight patients): 13%
Patients with a response to pralatrexate ([2]; of the 4 patients with dose reductions in cycle 2 due to mucosal inflammation): 3 patients
Patients with a response to pralatrexate ([2]; of the 8 patients with dose reductions due to mucosal inflammation in cycle 1): 4 patients
Incidence of Grade 3-4 anemia ([2]; ≧1 cycle): 13%
Incidence of Grade 3-4 mucosal inflammation ([2]; ≧1 cycle): 19%
Incidence of Grade 3-4 thrombocytopenia ([2]; ≧1 cycle): 28%
Patients in whom mucosal inflammation led to treatment discontinuation ([2]; ≧1 cycle): 6%
Incidence of Grade 3-4 anemia ([2]; ≧2 cycles): 9%
Incidence of Grade 3-4 mucosal inflammation ([2]; ≧2 cycles): 12%
Incidence of Grade 3-4 thrombocytopenia ([2]; ≧2 cycles): 21%
Patients in whom mucosal inflammation led to treatment discontinuation ([2]; ≧2 cycles): 2%
